Results as given in ChEMBL document CHEMBL1138005, “Carbonic anhydrase inhibitors: synthesis and inhibition of cytosolic/tumor-associated carbonic anhydrase isozymes I, II, and IX with sulfonamides incorporating 1,2,4-triazine moieties” (Bioorg Med Chem Lett, 2004).
pKi: −log10 of the molar value.

What was measured:
Carbonic anhydrase 2 = Carbonic anhydrase 2 (Homo sapiens, UniProt P00918)
Carbonic anhydrase 9 = Carbonic anhydrase 9 (Homo sapiens, UniProt Q16790)
Carbonic anhydrase 1 = Carbonic anhydrase 1 (Homo sapiens, UniProt P00915)
Carbonic anhydrase 1, sequence (P00915 whole entry): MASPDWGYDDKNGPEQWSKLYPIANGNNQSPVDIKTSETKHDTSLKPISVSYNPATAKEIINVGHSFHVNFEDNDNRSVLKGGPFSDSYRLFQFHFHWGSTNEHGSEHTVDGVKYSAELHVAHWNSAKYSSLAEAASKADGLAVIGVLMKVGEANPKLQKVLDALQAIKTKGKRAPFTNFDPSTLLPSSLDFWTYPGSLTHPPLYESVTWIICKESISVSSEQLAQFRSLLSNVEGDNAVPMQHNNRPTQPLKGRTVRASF

SMILES	pKi (Carbonic anhydrase 2)	pKi (Carbonic anhydrase 9)	pKi (Carbonic anhydrase 1)
NS(=O)(=O)c1ccc(Nc2nc(=O)[nH]c(=O)[nH]2)cc1	6.56	6.85	6.99
NS(=O)(=O)c1ccc(CNc2nc(=O)[nH]c(=O)[nH]2)cc1	6.89	6.44	7.03
COc1nc(NCc2ccc(S(N)(=O)=O)cc2)nc(OC)n1	6.95	6.81	6.94
CNc1nc(NC)nc(Nc2ccc(S(N)(=O)=O)cc2)n1	–	–	7.08
NS(=O)(=O)c1ccc(CCNc2nc(=O)[nH]c(=O)[nH]2)cc1	7.01	6.26	7.02
NS(=O)(=O)c1ccc(Nc2nc(Cl)nc(Cl)n2)cc1	–	9.82	–

Next, values leading:

pKi (Carbonic anhydrase 2)	pKi (Carbonic anhydrase 9)	pKi (Carbonic anhydrase 1)	SMILES
7.08	9.47	6.96	CCOc1nc(NCc2ccc(S(N)(=O)=O)cc2)nc(OCC)n1
7.57	8.96	7.06	CNc1nc(NC)nc(NCCc2ccc(S(N)(=O)=O)cc2)n1
7.68	6.79	–	COc1nc(NCCc2ccc(S(N)(=O)=O)cc2)nc(OC)n1
7.82	8.89	7.05	CNc1nc(NC)nc(NCc2ccc(S(N)(=O)=O)cc2)n1
7.68	6.86	7.12	NS(=O)(=O)c1ccc(CCNc2nc(Cl)nc(Cl)n2)cc1
7.70	9.92	7.11	CCOc1nc(Nc2ccc(S(N)(=O)=O)cc2)nc(OCC)n1
7.44	6.82	7.07	COc1nc(Nc2ccc(S(N)(=O)=O)cc2)nc(OC)n1
7.64	–	7.09	CCOc1nc(NCCc2ccc(S(N)(=O)=O)cc2)nc(OCC)n1
